{
  "source": "PubChem BioAssay AID1259408",
  "about": "(Genetic Toxicology Data Bank (GENE-TOX), 2018)",
  "test_system": "GENE-TOX genotoxicity assays, various organisms and cells",
  "experiment": "GENE-TOX mutagenicity studies",
  "key": {"[1]": {"settings": "Species/Cell Type: Mouse, Sex: Male, Assay Type: Sperm morphology, Assay Code: SPI-, Evaluation Type: Evaluation A (Pre-1980)"}},
  "note": "Activity calls are given as the source filed them. The rule behind the calls is not given here.",
  "data": [
    {"molecule": "Cc1cc(O)c2c(c1O)C(=O)c1cc(O)cc(O)c1C2=O", "values": [
      {"measurement": "mutagenic call", "setting": "Species/Cell Type: Salmonella typhimurium (one or more of the five standard strains: TA98, TA100, TA1535, TA1537, and TA1538), Assay Type: Histidine reverse gene mutation, Ames assay, Assay Code: SAL+, Evaluation Type: Evaluation A (Pre-1980)", "result": "active; positive"}
    ]},
    {"molecule": "CCN(CC)CCCC(C)Nc1c2ccc(Cl)cc2nc2ccc(OC)cc12", "note": "(stereo not drawn)", "values": [
      {"measurement": "mutagenic call", "setting": "Species/Cell Type: Escherichia coli polA (W3119 vs P3478), Assay Type: Rec-assay, DNA effects (bacterial DNA repair), Assay Code: RE1+, Evaluation Type: Evaluation A (Pre-1980)", "result": "active; positive"},
      {"measurement": "mutagenic call", "setting": "Species/Cell Type: Human lymphocytes, Assay Type: Sister-chromatid exchange (SCE) in vitro, Assay Code: SCL+, Evaluation Type: Evaluation B (Post-1980)", "result": "active; positive"},
      {"measurement": "mutagenic call", "setting": "Species/Cell Type: Human, Assay Type: Sister-chromatid exchange (SCE) in vitro, Assay Code: SC1+, Evaluation Type: Evaluation B (Post-1980)", "result": "active; positive"},
      {"measurement": "mutagenic call", "setting": "Species/Cell Type: Mammalian polychromatic erythrocytes, Assay Type: Micronucleus test, chromosome aberrations, Assay Code: MNT+, Evaluation Type: Evaluation B (Post-1980)", "result": "active; positive"},
      {"measurement": "mutagenic call", "setting": "Species/Cell Type: Mammalian polychromatic erythrocytes, Assay Type: Micronucleus test, chromosome aberrations, Assay Code: MNTT, Evaluation Type: Evaluation A (Pre-1980)", "result": "no conclusion"},
      {"measurement": "mutagenic call", "setting": "[1]", "result": "inactive; negative"}
    ]},
    {"molecule": "COCCOC(C)=O", "values": [
      {"measurement": "mutagenic call", "setting": "Species/Cell Type: Mammalian polychromatic erythrocytes, Assay Type: Micronucleus test, chromosome aberrations, Assay Code: MNT-, Evaluation Type: Evaluation B (Post-1980)", "result": "inactive; negative"}
    ]},
    {"molecule": "O=C1NS(=O)(=O)c2ccccc21", "values": [
      {"measurement": "mutagenic call", "setting": "Species/Cell Type: Allium cepa, Assay Type: Chromosome aberrations, Assay Code: ALC+D, Dose Response: With dose response, Evaluation Type: Evaluation A (Pre-1980)", "result": "active; positive"},
      {"measurement": "mutagenic call", "setting": "Species/Cell Type: Drosophila melanogaster, Assay Type: Sex-linked recessive lethal gene mutation, Assay Code: SRL+, Evaluation Type: Evaluation A (Pre-1980)", "result": "active; positive"},
      {"measurement": "mutagenic call", "setting": "Species/Cell Type: Drosophila melanogaster, Sex: Male, Assay Type: Heritable translocation test, chromosome aberrations, Assay Code: DHTT, Evaluation Type: Evaluation A (Pre-1980)", "result": "no conclusion"},
      {"measurement": "mutagenic call", "setting": "Species/Cell Type: Escherichia coli polA (W3110 vs P3478), Assay Type: Rec-assay, DNA effects (bacterial DNA repair), Assay Code: RE2-, Evaluation Type: Evaluation A (Pre-1980)", "result": "inactive; negative"},
      {"measurement": "mutagenic call", "setting": "Species/Cell Type: Escherichia coli polA (W3119 vs P3478), Assay Type: Rec-assay, DNA effects (bacterial DNA repair), Assay Code: RE1-, Evaluation Type: Evaluation A (Pre-1980)", "result": "inactive; negative"},
      {"measurement": "mutagenic call", "setting": "Species/Cell Type: Human lymphocytes, Assay Type: Sister-chromatid exchange (SCE) in vitro, Assay Code: SCL+D, Dose Response: With dose response, Evaluation Type: Evaluation A (Pre-1980)", "result": "active; positive"},
      {"measurement": "mutagenic call", "setting": "Species/Cell Type: Human lymphocytes, Assay Type: Sister-chromatid exchange (SCE) in vitro, Assay Code: SCLT, Evaluation Type: Evaluation B (Post-1980)", "result": "no conclusion"},
      {"measurement": "mutagenic call", "setting": "Species/Cell Type: Human, Assay Type: Sister-chromatid exchange (SCE) in vitro, Assay Code: SC1+D, Dose Response: With dose response, Evaluation Type: Evaluation A (Pre-1980)", "result": "active; positive"},
      {"measurement": "mutagenic call", "setting": "Species/Cell Type: Human, Assay Type: Sister-chromatid exchange (SCE) in vitro, Assay Code: SC1T, Evaluation Type: Evaluation B (Post-1980)", "result": "no conclusion"},
      {"measurement": "mutagenic call", "setting": "Species/Cell Type: Mammalian polychromatic erythrocytes, Assay Type: Micronucleus test, chromosome aberrations, Assay Code: MNTT, Evaluation Type: Evaluation B (Post-1980)", "result": "no conclusion"},
      {"measurement": "mutagenic call", "setting": "Species/Cell Type: Mouse (C3H/10T1/2) cells, Assay Type: Cell transformation, Assay Code: CTH-, Evaluation Type: Evaluation A (Pre-1980)", "result": "inactive; negative"},
      {"measurement": "mutagenic call", "setting": "Species/Cell Type: Mouse lymphoma (L5178Y) cells, Assay Type: Forward gene mutation at the thymidine kinase (TK) locus, chromosome aberrations, Assay Code: L51T, Evaluation Type: Evaluation A (Pre-1980)", "result": "no conclusion"},
      {"measurement": "mutagenic call", "setting": "[1]", "result": "inactive; negative"},
      {"measurement": "mutagenic call", "setting": "Species/Cell Type: Neurospora crassa, Assay Type: Aneuploidy, chromosome aberrations, Assay Code: NEN-, Evaluation Type: Evaluation A (Pre-1980)", "result": "inactive; negative"},
      {"measurement": "mutagenic call", "setting": "Species/Cell Type: Nonhuman, Assay Type: Sister-chromatid exchange (SCE) in vitro, Assay Code: SC2+D, Dose Response: With dose response, Evaluation Type: Evaluation A (Pre-1980)", "result": "active; positive"},
      {"measurement": "mutagenic call", "setting": "Species/Cell Type: Nonhuman, Assay Type: Sister-chromatid exchange (SCE) in vivo, Assay Code: SC3+D, Dose Response: With dose response, Evaluation Type: Evaluation B (Post-1980)", "result": "active; positive"},
      {"measurement": "mutagenic call", "setting": "Species/Cell Type: Rodents, Sex: Male, Assay Type: Dominant lethal test, Assay Code: DLT+, Evaluation Type: Evaluation A (Pre-1980)", "result": "active; positive"},
      {"measurement": "mutagenic call", "setting": "Species/Cell Type: Saccharomyces cerevisiae, Assay Type: Aneuploidy, chromosome aberrations, Assay Code: YEN+, Evaluation Type: Evaluation A (Pre-1980)", "result": "active; positive"},
      {"measurement": "mutagenic call", "setting": "Species/Cell Type: Saccharomyces cerevisiae, Assay Type: Mitotic recombination or gene conversion, Assay Code: YEC+, Evaluation Type: Evaluation A (Pre-1980)", "result": "active; positive"},
      {"measurement": "mutagenic call", "setting": "Species/Cell Type: Saccharomyces cerevisiae, Assay Type: Mitotic recombination or gene conversion, Assay Code: YEH+/-*, Activation: With metabolic activation, Evaluation Type: Evaluation A (Pre-1980)", "result": "inactive; positive without activation, negative with activation"},
      {"measurement": "mutagenic call", "setting": "Species/Cell Type: Saccharomyces cerevisiae, Assay Type: Reverse gene mutation, Assay Code: YER+, Evaluation Type: Evaluation A (Pre-1980)", "result": "active; positive"},
      {"measurement": "mutagenic call", "setting": "Species/Cell Type: Salmonella typhimurium (one or more of the five standard strains: TA98, TA100, TA1535, TA1537, and TA1538), Assay Type: Histidine reverse gene mutation, Ames assay, Assay Code: SAL-, Evaluation Type: Evaluation A (Pre-1980)", "result": "inactive; negative"},
      {"measurement": "mutagenic call", "setting": "Species/Cell Type: Salmonella typhimurium, Assay Type: Forward and reverse gene mutation, body fluid assay, Assay Code: BFU+, Evaluation Type: Evaluation A (Pre-1980)", "result": "active; positive"},
      {"measurement": "mutagenic call", "setting": "Species/Cell Type: Salmonella typhimurium, Assay Type: Forward and reverse gene mutation, host-mediated assay, Assay Code: HMA+, Evaluation Type: Evaluation A (Pre-1980)", "result": "active; positive"},
      {"measurement": "mutagenic call", "setting": "Species/Cell Type: Syrian hamster embryo (SHE) cells, Assay Type: Cell transformation, clonal assay, Assay Code: CTC-, Evaluation Type: Evaluation A (Pre-1980)", "result": "inactive; negative"}
    ]}
  ]
}
